Source: the supplement of paper PMC11061612

Legend:
Experiment in all cases: Bliss excess, mean over the matrix (fraction); higher = more synergy
KALS-1 (Glioblastoma) = system: KALS-1 (Glioblastoma)
How it was run: (§1)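 Bliss excess equals the observed combination effect minus the expected value EA + EB − EA·EB, where EA and EB are the effects of each agent alone. Combination Emax is the second-highest inhibition within the matrix. Inhibition was scaled from CellTiter-Glo 2.0 luminescence, with 0 set by vehicle wells and 1 by blank wells, after 72 hours of two-drug dosing of cells plated in 1536-well plates.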

[1] = system: SNU-C2B (Colorectal Carcinoma)
How it was run: as §1

[2] = system: MM1S (Plasma Cell Myeloma)
How it was run: as §1

[3] = system: LS-1034 (Colorectal Carcinoma)
How it was run: as §1

ES6 (Ewing's Sarcoma) = system: ES6 (Ewing's Sarcoma)
How it was run: as §1

UACC-257 (Melanoma) = system: UACC-257 (Melanoma)
How it was run: as §1

[4] = system: C-33-A (Cervical Carcinoma)
How it was run: as §1

[5] = system: MOLP-8 (Plasma Cell Myeloma)
How it was run: as §1

[6] = system: CPC-N (Small Cell Lung Carcinoma)
How it was run: as §1

[7] = system: MDA-MB-415 (Breast Carcinoma)
How it was run: as §1

[8] = system: PA-TU-8988T (Pancreatic Carcinoma)
How it was run: as §1

[9] = system: BHT-101 (Thyroid Gland Carcinoma)
How it was run: as §1

[10] = system: OVCAR-3 (Ovarian Carcinoma)
How it was run: as §1

[11] = system: TUR (Acute Myeloid Leukemia)
How it was run: as §1

[12] = system: MS-1 (Small Cell Lung Carcinoma)
How it was run: as §1

[13] = system: NCI-H3118 (Head and Neck Carcinoma)
How it was run: as §1

[14] = system: T84 (Colorectal Carcinoma)
How it was run: as §1

[15] = system: Raji (Burkitt's Lymphoma)
How it was run: as §1

[16] = system: NCI-H1963 (Small Cell Lung Carcinoma)
How it was run: as §1

[17] = system: NCI-H1876 (Small Cell Lung Carcinoma)
How it was run: as §1

Compound	Bliss excess (KALS-1 (Glioblastoma))	Bliss excess [1]	Bliss excess [2]	Bliss excess [3]	Bliss excess (ES6 (Ewing's Sarcoma))	Bliss excess (UACC-257 (Melanoma))	Bliss excess [4]	Bliss excess [5]	Bliss excess [6]	Bliss excess [7]	Bliss excess [8]	Bliss excess [9]	Bliss excess [10]	Bliss excess [11]	Bliss excess [12]	Bliss excess [13]	Bliss excess [14]	Bliss excess [15]	Bliss excess [16]	Bliss excess [17]
COc1nnc2ccc(N3CCC(c4ccc(OCCN5CCN(C)C(=O)[C@H]5C)cc4)CC3)nn12 [AZD5153] + Cc1c2c(nn1C)CSCc1cc(n(C)n1)CSc1cc(c3ccccc3c1)OCCCc1c(C(=O)O)n(C)c3c-2c(Cl)ccc13 [AZD5991] (first compound max 1 µM, 7x7, partner max 1 µM)	0.0141	-0.0319	0.15	-0.0569	-0.0033	-0.019	0.0124	-0.0051	0.0163	0.031	0.005	0.0167	0.0003	0.0507	-0.0151	-0.0602	-0.0524	-0.0119	0.0125	0.157
CC1(C)CCC(CN2CCN(c3ccc(C(=O)NS(=O)(=O)c4ccc(NCC5CCOCC5)c([N+](=O)[O-])c4)c(Oc4cnc5[nH]ccc5c4)c3)CC2)=C(c2ccc(Cl)cc2)C1 [Venetoclax] + COc1cc(Nc2ncc3c(n2)-c2ccc(Cl)cc2C(c2c(F)cccc2OC)=NC3)ccc1C(=O)O [Alisertib] (first compound max 1 µM, 7x7, partner max 10 µM)	-0.0642	0.0168	0.078	-0.0252	-0.0324	-0.0234	-0.0225	0.141	-0.047	-0.0711	0.0042	-0.0636	-0.0234	0.077	0.0861	-0.0188	0.0136	-0.006	0.0303	0.0228
C[C@@H](c1ccc2nccn2c1)n1nnc2ncc(-c3cnn(C)c3)nc21 [Savolitinib] + CC1(C)CCC(CN2CCN(c3ccc(C(=O)NS(=O)(=O)c4ccc(NCC5CCOCC5)c([N+](=O)[O-])c4)c(Oc4cnc5[nH]ccc5c4)c3)CC2)=C(c2ccc(Cl)cc2)C1 [Venetoclax] (first compound max 1 µM, 7x7, partner max 1 µM)	-0.0571	-0.0831	-0.0663	-0.0465	-0.0344	-0.0766	-0.0466	-0.0194	-0.0454	-0.0258	-0.0763	-0.0341	-0.0399	-0.0452	-0.0098	-0.0398	-0.0649	-0.0114	-0.0237	-0.0486
Cc1c2c(nn1C)CSCc1cc(n(C)n1)CSc1cc(c3ccccc3c1)OCCCc1c(C(=O)O)n(C)c3c-2c(Cl)ccc13 [AZD5991] + Cn1cnc2c(F)c(Nc3ccc(Br)cc3Cl)c(C(=O)NOCCO)cc21 [Selumetinib] (first compound max 1 µM, 7x7, partner max 3 µM)	-0.0897	0.0671	0.0828	0.0513	-0.039	0.0215	0.0077	0.0291	0.0185	-0.0419	0.0457	0.0253	0.0353	0.0408	-0.0362	0.0324	0.0438	0.0082	0.0518	0.0841
Cc1nc(Nc2ncc(C(=O)Nc3c(C)cccc3Cl)s2)cc(N2CCN(CCO)CC2)n1 [Dasatinib] + CC(=O)Nc1cccc(-n2c(=O)n(C3CC3)c(=O)c3c(Nc4ccc(I)cc4F)n(C)c(=O)c(C)c32)c1 [Trametinib] (first compound max 2 µM, 7x7, partner max 1 µM)	-0.0046	-0.0275	-0.0089	-0.0302	-0.0495	-0.0926	0.0559	0.0159	-0.0405	-0.0197	0.136	0.0569	-0.001	-0.0919	-0.0281	-0.0604	-0.0174	-0.0232	0.0078	-0.0548
CC1(C)CCC(CN2CCN(c3ccc(C(=O)NS(=O)(=O)c4ccc(NCC5CCOCC5)c([N+](=O)[O-])c4)c(Oc4cnc5[nH]ccc5c4)c3)CC2)=C(c2ccc(Cl)cc2)C1 [Venetoclax] + Cn1cnc2c(F)c(Nc3ccc(Br)cc3Cl)c(C(=O)NOCCO)cc21 [Selumetinib] (first compound max 1 µM, 7x7, partner max 3 µM)	-0.0415	-0.0107	0.0456	-0.0644	-0.0321	-0.0487	-0.0033	-0.0737	-0.0454	-0.0498	-0.021	-0.0959	-0.017	-0.024	-0.0273	-0.0276	-0.061	-0.003	0.0788	-0.0335
CC(=O)Nc1cccc(-n2c(=O)n(C3CC3)c(=O)c3c(Nc4ccc(I)cc4F)n(C)c(=O)c(C)c32)c1 [Trametinib] + Cc1nc(-c2cn3c(n2)-c2ccc(-c4cnn(C(C)(C)C(N)=O)c4)cc2OCC3)n(C(C)C)n1 [Taselisib] (first compound max 1 µM, 7x7, partner max 10 µM)	0.0751	0.114	0.119	0.0234	-0.0292	0.0443	0.0744	0.186	0.0985	-0.0162	0.173	0.115	0.037	0.157	0.0912	0.13	0.233	0.0075	0.0452	0.132
COc1cccc(OCCCN)c1-c1cc(Nc2cnc(C#N)cn2)n[nH]1 [Prexasertib] + C[C@@H]1COCCN1C2=NC(=NC(=C2)C3(CC3)[S@](=N)(=O)C)C4=C5C=CNC5=NC=C4 [AZD6738] (first compound max 1 µM, 7x7, partner max 10 µM)	-0.0557	-0.0274	-0.0953	0.035	0.0366	0.0005	0.0091	-0.0366	-0.013	-0.0055	0.0224	0.0322	0.032	0.0298	-0.0136	-0.032	-0.0026	-0.0472	-0.0231	0.0095
NC1(C(=O)N[C@@H](CCO)c2ccc(Cl)cc2)CCN(c2ncnc3[nH]ccc23)CC1 [Capivasertib] + CC(C)n1c(=O)n(C)c2cnc3cc(F)c(-c4ccc(OCCCN5CCCCC5)nc4)cc3c21 [AZD1390] (first compound max 10 µM, 7x7, partner max 0.3 µM)	-0.054	-0.0775	-0.0204	-0.0447	-0.0981	-0.0358	-0.0383	-0.0032	-0.0435	-0.0297	-0.0434	-0.0197	-0.0438	-0.0704	0.0169	-0.0572	-0.0417	-0.0461	-0.0615	-0.0805
Cc1c2c(nn1C)CSCc1cc(n(C)n1)CSc1cc(c3ccccc3c1)OCCCc1c(C(=O)O)n(C)c3c-2c(Cl)ccc13 [AZD5991] + Cc1cc2ncnn2cc1Nc1ncc2c(n1)n(C1CCOCC1)c(=O)n2C [AZD7648] (first compound max 1 µM, 7x7, partner max 10 µM)	-0.008	-0.012	0.0085	0.0092	-0.0745	-0.0242	-0.0586	0.0192	-0.0109	-0.0924	-0.051	-0.0308	-0.0311	-0.0488	-0.0158	-0.0707	-0.0431	0.0794	-0.0169	-0.0266
